Reference: the Kinase Knowledgebase extract (Sharma et al. 2016)

Legend:
PIK3CA (human) = PIK3CA (human) (UniProt P42336); assay: Assessment of PIK3CA Kinase Activity
PIK3CB (Human) = PIK3CB (Human) (UniProt P42338); assay: Assessment of PIK3CB Kinase Activity
PIK3CG (human) = PIK3CG (human) (UniProt P48736); assay: Assessment of PIK3CG Kinase Activity
PIK3CD (Human) = PIK3CD (Human) (UniProt O00329); assay: Assessment of PIK3CD Kinase Activity
Sequence of PIK3CD (Human) (O00329 whole entry, looked up): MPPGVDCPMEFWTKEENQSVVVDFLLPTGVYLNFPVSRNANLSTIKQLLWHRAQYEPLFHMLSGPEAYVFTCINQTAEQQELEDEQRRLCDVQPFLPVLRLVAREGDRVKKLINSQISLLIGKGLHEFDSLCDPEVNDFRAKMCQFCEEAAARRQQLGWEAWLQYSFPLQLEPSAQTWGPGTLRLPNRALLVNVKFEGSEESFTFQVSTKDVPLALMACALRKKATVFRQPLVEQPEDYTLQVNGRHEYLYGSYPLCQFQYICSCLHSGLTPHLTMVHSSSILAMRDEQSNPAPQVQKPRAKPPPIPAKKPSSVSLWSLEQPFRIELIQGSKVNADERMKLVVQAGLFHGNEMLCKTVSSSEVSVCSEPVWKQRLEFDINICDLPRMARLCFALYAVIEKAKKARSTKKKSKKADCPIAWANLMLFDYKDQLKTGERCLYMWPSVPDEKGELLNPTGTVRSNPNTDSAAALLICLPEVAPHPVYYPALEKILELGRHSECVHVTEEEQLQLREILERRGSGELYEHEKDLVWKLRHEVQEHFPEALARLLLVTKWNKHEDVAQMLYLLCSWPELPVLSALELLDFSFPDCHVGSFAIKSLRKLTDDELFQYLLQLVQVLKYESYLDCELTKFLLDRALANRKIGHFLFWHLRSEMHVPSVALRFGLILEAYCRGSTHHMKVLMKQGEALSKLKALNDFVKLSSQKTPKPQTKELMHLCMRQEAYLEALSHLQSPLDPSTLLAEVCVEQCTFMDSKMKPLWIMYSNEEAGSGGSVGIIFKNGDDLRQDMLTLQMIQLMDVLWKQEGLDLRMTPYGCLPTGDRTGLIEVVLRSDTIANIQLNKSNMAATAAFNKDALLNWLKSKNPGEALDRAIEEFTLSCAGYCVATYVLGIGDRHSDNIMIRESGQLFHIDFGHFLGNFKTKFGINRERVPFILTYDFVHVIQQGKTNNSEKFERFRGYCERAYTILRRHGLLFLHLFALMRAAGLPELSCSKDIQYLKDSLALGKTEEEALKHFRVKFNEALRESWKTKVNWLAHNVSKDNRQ

Sequence of PIK3CG (human) (P48736 whole entry, looked up): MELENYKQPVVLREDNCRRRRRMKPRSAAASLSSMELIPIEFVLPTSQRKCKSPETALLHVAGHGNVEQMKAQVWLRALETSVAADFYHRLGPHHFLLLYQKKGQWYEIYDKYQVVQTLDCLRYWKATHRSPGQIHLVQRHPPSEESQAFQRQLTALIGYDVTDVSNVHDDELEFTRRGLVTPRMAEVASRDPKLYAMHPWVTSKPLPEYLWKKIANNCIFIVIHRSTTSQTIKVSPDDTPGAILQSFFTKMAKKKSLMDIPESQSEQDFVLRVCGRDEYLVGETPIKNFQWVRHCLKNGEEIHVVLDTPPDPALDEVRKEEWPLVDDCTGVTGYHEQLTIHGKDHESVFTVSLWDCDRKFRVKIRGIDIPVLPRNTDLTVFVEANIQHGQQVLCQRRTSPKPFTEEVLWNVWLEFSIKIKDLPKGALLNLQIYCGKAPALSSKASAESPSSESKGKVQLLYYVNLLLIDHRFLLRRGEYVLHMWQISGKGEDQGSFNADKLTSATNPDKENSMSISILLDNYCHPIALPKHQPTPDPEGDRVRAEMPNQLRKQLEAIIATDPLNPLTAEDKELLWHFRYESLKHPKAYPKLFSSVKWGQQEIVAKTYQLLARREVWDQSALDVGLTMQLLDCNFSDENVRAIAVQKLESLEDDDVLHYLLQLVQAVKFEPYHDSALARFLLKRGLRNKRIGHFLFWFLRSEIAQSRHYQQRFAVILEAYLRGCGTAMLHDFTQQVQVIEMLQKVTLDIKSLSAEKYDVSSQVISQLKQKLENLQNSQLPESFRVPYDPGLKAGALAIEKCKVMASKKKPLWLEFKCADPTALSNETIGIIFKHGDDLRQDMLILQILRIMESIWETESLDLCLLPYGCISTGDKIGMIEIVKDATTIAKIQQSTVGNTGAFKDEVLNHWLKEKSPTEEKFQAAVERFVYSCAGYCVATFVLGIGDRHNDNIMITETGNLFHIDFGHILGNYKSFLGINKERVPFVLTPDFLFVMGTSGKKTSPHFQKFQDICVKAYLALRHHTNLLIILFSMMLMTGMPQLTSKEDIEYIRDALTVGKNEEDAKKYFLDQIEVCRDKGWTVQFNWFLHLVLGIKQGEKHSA
Sequence of PIK3CA (human) (P42336 whole entry, looked up): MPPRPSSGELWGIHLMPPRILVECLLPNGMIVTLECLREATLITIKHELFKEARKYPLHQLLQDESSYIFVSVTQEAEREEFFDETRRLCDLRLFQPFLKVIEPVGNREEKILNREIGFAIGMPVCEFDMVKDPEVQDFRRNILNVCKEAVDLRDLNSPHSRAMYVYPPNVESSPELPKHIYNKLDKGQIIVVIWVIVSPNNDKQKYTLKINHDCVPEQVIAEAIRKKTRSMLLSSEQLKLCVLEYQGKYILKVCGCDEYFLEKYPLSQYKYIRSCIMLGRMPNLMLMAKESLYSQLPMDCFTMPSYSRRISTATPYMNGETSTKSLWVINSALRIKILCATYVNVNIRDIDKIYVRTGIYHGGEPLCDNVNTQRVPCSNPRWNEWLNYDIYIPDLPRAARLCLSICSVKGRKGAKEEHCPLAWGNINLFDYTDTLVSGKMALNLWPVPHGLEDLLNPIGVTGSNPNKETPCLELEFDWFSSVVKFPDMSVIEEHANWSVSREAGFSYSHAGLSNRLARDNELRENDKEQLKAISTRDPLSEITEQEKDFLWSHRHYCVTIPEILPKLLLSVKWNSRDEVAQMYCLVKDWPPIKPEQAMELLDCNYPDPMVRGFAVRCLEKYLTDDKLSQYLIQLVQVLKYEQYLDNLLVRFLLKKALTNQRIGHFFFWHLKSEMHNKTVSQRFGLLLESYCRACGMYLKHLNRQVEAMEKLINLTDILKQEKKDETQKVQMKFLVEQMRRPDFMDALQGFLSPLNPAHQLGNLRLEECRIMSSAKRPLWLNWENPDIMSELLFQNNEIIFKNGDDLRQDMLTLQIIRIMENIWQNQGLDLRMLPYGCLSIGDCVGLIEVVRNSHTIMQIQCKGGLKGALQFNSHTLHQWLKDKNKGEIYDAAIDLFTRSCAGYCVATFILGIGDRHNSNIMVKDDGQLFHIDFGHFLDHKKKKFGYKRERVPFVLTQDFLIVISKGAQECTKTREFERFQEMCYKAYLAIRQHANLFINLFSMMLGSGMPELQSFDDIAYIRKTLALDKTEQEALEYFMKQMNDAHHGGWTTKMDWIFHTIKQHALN
Sequence of PIK3CB (Human) (P42338 whole entry, looked up): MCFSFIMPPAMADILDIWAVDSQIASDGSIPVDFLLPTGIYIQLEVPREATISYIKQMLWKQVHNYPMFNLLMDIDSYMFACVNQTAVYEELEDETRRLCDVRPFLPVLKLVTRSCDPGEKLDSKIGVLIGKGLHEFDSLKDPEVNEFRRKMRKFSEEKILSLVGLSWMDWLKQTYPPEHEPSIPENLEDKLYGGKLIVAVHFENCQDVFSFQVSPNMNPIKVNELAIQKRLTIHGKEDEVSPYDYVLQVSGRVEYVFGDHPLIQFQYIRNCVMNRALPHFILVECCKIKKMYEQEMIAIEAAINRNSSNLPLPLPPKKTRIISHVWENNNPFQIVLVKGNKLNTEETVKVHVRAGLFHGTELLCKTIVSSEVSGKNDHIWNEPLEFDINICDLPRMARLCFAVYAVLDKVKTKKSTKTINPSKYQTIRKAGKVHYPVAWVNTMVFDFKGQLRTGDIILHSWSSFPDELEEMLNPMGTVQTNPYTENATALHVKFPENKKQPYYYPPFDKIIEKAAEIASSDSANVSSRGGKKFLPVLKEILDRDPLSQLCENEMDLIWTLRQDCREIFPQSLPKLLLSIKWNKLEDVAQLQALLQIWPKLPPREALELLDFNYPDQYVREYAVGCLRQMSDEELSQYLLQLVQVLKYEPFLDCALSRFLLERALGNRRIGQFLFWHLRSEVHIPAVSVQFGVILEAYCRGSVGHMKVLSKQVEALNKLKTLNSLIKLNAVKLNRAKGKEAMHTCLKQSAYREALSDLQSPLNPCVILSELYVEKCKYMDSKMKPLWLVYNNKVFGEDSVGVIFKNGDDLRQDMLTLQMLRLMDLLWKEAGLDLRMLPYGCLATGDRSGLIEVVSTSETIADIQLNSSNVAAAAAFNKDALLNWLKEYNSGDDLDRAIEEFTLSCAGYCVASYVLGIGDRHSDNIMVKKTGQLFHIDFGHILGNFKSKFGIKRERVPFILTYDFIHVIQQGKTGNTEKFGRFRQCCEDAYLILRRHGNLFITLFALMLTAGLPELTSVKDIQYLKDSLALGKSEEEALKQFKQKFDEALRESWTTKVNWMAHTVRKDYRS

| IC50 (PIK3CA (human)) | IC50 (PIK3CB (Human)) | IC50 (PIK3CG (human)) | IC50 (PIK3CD (Human)) | SMILES |
| --- | --- | --- | --- | --- |
| 100 to 500 nM | 100 to 500 nM | ≤ 100 nM | ≤ 100 nM | Cc1nc(N)nc2ccc(-c3cccc(O)c3)cc12 |
| 100 to 500 nM | – | – | – | Nc1ncc2cc(-c3cccc(O)c3)ccc2n1 |
| ≤ 100 nM | – | ≤ 100 nM | ≤ 100 nM | Cc1nc(Nc2cccnc2)nc2ccc(-c3cc(O)cc(F)c3)cc12 |
| 500 to 1000 nM | – | 100 to 500 nM | – | CNc1nc(C)c2cc(-c3cnc4[nH]ccc4c3)ccc2n1 |
| 100 to 500 nM | 500 to 1000 nM | ≤ 100 nM | ≤ 100 nM | CNc1nc(C)c2cc(-c3cc(O)cc(F)c3)ccc2n1 |
| 500 to 1000 nM | – | – | – | CNc1nc(C)c2cc(-c3ccc(F)c(O)c3)ccc2n1 |
| 100 to 500 nM | – | ≤ 100 nM | 100 to 500 nM | CNc1nc(C)c2cc(-c3cccc(O)c3)ccc2n1 |
| 500 to 1000 nM | – | – | – | CNc1nc(C)c2cc(-c3ccc(O)c(F)c3)ccc2n1 |
| 500 to 1000 nM | – | – | – | CNc1nc(C)c2cc(-c3ccc(O)c(Cl)c3)ccc2n1 |
| 500 to 1000 nM | – | – | – | Cc1nc(N)nc2ccc(-c3cnc4[nH]ccc4c3)cc12 |
| ≤ 100 nM | – | ≤ 100 nM | ≤ 100 nM | Cc1nc(Nc2cccnc2)nc2ccc(-c3cccc(O)c3)cc12 |
